This passage reports IC50 results from US9415055B2, “Cyclic amines” (H. Lundbeck A/S, priority 2012, dated 2016).

P2X7 receptor, sequence (Q99572 whole entry): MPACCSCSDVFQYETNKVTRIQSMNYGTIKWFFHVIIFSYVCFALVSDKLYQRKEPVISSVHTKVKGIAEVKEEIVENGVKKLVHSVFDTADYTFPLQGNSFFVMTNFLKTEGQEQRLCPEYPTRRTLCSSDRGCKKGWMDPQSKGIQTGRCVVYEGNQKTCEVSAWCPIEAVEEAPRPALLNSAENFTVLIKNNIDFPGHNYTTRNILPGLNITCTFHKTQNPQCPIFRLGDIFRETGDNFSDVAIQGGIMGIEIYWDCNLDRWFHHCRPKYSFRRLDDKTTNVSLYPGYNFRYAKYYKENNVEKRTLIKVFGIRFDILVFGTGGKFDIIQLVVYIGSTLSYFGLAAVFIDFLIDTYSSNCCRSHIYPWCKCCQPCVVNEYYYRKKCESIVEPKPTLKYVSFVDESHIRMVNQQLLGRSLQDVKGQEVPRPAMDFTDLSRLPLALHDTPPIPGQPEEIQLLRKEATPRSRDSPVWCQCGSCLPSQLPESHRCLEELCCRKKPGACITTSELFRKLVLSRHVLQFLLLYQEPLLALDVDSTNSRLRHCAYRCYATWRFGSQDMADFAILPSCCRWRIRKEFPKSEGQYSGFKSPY

The test has as its target P2X7 receptor (Homo sapiens (Human), UniProt Q99572). Put plainly: P2X7 FLIPR assay: antagonism of BzATP response in 293 HEK cells stably expressing P2X7 receptor. The class given is cell-based. Conditions: FLIPR fluorescence (Fluo-4), agonist BzATP, 293 HEK cells stably transfected with P2X7 receptor. As to the method: Cells were plated to cell density of approximately 15,000 cells/well in 384-well assay plates (50 μl/well) with 1.5% low serum media (DMEM, 1.5% BCS, 1% L-glut (2 mM), 1% P/S).
Cells were plated to cell density of approximately 15,000 cells/well in 384-well assay plates (50 μl/well) with 1.5% low serum media (DMEM, 1.5% FBS, 1% L-glut (2 mM), 10 mM HEPES, 1% P/S). Cells were plated 24 hours prior to assay. Cells expressing human, rat or mouse P2X7 receptor were assayed in the following manner.
Fluo-4 NW dye mix (Molecular Probes, Inc., Eugene, Oreg., USA) was prepared in buffer (see manufacturer's instructions). Cell plates were removed from the 37° C. incubator, the media discarded and then 30 μL of dye was added to each well. Plates were placed in the 37° C., non-CO2 incubator for 30 minutes and then room temperature for 30 minutes.
Compound mixtures (A) were added to assay plates containing cells and placed at room temperature for 30 minutes, then BzATP (B) was added. Fluorescence was read using the Tetra FLIPR® (Molecular Devices, Inc., Sunnyvale, Calif., USA) and IC50 values were calculated by standard methods to determine antagonist activity.
By IC50 is commonly meant the concentration at which inhibition is half-maximal. Low values mean inhibition by little substance, high ones a need for much substance. For `O=C(NCC(c1cnc(C(F)(F)F)nc1)N1CCC(F)(F)CC1)c1c(F)cccc1Cl` (single isomer, unassigned; (-)) [(−)2-chloro-N-[2-(4,4-difluoro-1-piperidyl)-2-[2-(trifluorom] [(−)2-chloro-6-fluoro-N-(2-(4,4-difluoropiperidin-1-yl)-2-(trifluoromethyl)pyrimidin-5-yl)ethyl)benzamide], the 50% inhibitory concentration (IC50) came to 8.2 nM.
`O=C(NCC(c1cnc(C(F)(F)F)nc1)N1CCC(F)CC1)c1c(Cl)cccc1Cl` (single isomer, unassigned; (+)) [(+)2,6-dichloro-N-[2-(4-fluoro-1-piperidyl)-2-[2-(trifluorom] [(+)2,6-dichloro-N-(2-(4-fluoropiperidin-1-yl)-2-(2-(trifluoromethyl)pyrimidin-5-yl)ethyl)benzamide] yielded an IC50 of 6.1 nM.
`Cc1ncc(C(CNC(=O)c2cccc(Cl)c2Cl)N2CCC(F)(F)CC2)cn1` (single isomer, unassigned; (+)) [(+)2,3-dichloro-N-[2-(4,4-difluoro-1-piperidyl)-2-(2-methylp] [(+)2,3-dichloro-N-(2-(4,4-difluoropiperidin-1-yl)-2-(2-methylpyrimidin-5-yl)ethyl)benzamide] gave a half-maximal inhibitory concentration (IC50) of 3.2 nM.
Under `Cc1ncc(C(CNC(=O)c2cccc(F)c2Cl)N2CCC(F)(F)CC2)cn1` (single isomer, unassigned; (-)) [(−)2-chloro-N-[2-(4,4-difluoro-1-piperidyl)-2-(2-methylpyrim] [(−)2-chloro-3-fluoro-N-(2-(4,4-difluoropiperidin-1-yl)-2-(2-methylpyrimidin-5-yl)ethyl)benzamide] stands 19 nM; under `O=C(NCC(c1cncnc1)N1CCOCC1)c1cccc(Cl)c1Cl` (centres unmarked) [2,3-Dichloro-N-(2-morpholino-2-pyrimidin-5-yl-ethyl)benzamide], 28 nM.
In turn, `O=C(NCC(c1cnc(C(F)(F)F)nc1)N1CCOCC1)c1cccc(C(F)(F)F)c1Cl` (single isomer, unassigned; (+)) [(+)2-chloro-N-[2-morpholino-2-[2-(trifluoromethyl)pyrimidin-] [(+)2-Chloro-N-[2-morpholino-2-[2-(trifluoromethyl)pyrimidin-5-yl]ethyl]-3-(trifluoromethyl)benzamide] registered a half-inhibitory concentration (IC50) of 17 nM. This IC50 lies about 1.6-fold lower than the previous one.
On to `O=C(NCC(c1cnc(C(F)(F)F)nc1)N1CCC(F)CC1)c1c(Cl)cccc1Cl` (single isomer, unassigned; (-)) [(−)2,6-dichloro-N-[2-(4-fluoro-1-piperidyl)-2-[2-(trifluorom] [(−)2,6-dichloro-N-(2-(4-fluoropiperidin-1-yl)-2-(2-(trifluoromethyl)pyrimidin-5-yl)ethyl)benzamide], for which the IC50 amounted to 15 nM.
As for `O=C(NCC(c1cnc(C(F)(F)F)nc1)N1CCC(F)(F)CC1)c1cccc(F)c1Cl` (single isomer, unassigned; (-)) [(−)2-chloro-N-[2-(4,4-difluoro-1-piperidyl)-2-[2-(trifluorom] [(−)2-chloro-N-(2-(4,4-difluoropiperidin-1-yl)-2-(2-(trifluoromethyl)pyrimidin-5-yl)ethyl)-3-fluorobenzamide], the half-inhibitory concentration (IC50) was 4.2 nM. This IC50 lies about 3.6-fold lower than the previous one.
The value for `CCc1ncc(C(CNC(=O)c2ccccc2Cl)N2CCC(F)(F)CC2)cn1` (single isomer, unassigned; (+)) [(+)2-chloro-N-[2-(4,4-difluoro-1-piperidyl)-2-(2-ethylpyrimi] [(+)2-chloro-N-(2-(4,4-difluoropiperidin-1-yl)-2-(2-ethylpyrimidin-5-yl)ethyl)benzamide] was 12 nM; that for `Cc1ncc(C(CNC(=O)c2c(F)cccc2Cl)N2CCC(F)(F)CC2)cn1` (single isomer, unassigned; (+)) [(+)2-chloro-N-[2-(4,4-difluoro-1-piperidyl)-2-(2-methylpyrim] [(+)2-chloro-6-fluoro-N-(2-(4,4-difluoropiperidin-1-yl)-2-(2-methylpyrimidin-5-yl)ethyl)benzamide] was 19 nM; that for `O=C(NCC(c1cnc(C(F)F)nc1)N1CCOCC1)c1cccc(F)c1Cl` (single isomer, unassigned; (+)) [(+)2-chloro-N-[2-[2-(difluoromethyl)pyrimidin-5-yl]-2-morpho] [(+)2-chloro-3-fluoro-N-(2-(2-(difluoromethyl)pyrimidin-5-yl)-2-morpholinoethyl)benzamide] was 4.8 nM.
In turn, `COc1cccc(C(=O)NCC(c2ccc(F)cc2)N2CCC(F)(F)CC2)c1Cl` (single isomer, unassigned; (-)) [(−)2-chloro-N-(2-(4,4-difluoropiperidin-1-yl)-2-(4-fluorophenyl)ethyl)-3-methoxybenzamide] registered a 50% inhibitory concentration (IC50) of 2.6 nM.
Under `O=C(NCC(c1cnc(C(F)(F)F)nc1)N1CCOCC1)c1cccc(F)c1Cl` (centres unmarked) [2-chloro-3-fluoro-N-(2-morpholino-2-(2-(trifluoromethyl)pyrimidin-5-yl)ethyl)benzamide] stands 11 nM; under `Cc1ccc(C(CNC(=O)c2cccc(F)c2Cl)N2CCC(F)(F)CC2)cn1` (single isomer, unassigned; (-)) [(−)2-chloro-N-[2-(4,4-difluoro-1-piperidyl)-2-(6-methyl-3-pr] [(−)2-chloro-3-fluoro-N-(2-(4,4-difluoropiperidin-1-yl)-2-(2-methylpyridin-5-yl)ethyl)benzamide], 21 nM.
Compound `O=C(NCC(c1cnc(C(F)F)nc1)N1CCOCC1)c1cccc(F)c1Cl` (single isomer, unassigned; (-)) [(−)2-chloro-N-[2-[2-(difluoromethyl)pyrimidin-5-yl]-2-morpho] [(−)2-chloro-3-fluoro-N-(2-(2-(difluoromethyl)pyrimidin-5-yl)-2-morpholinoethyl)benzamide] displayed a concentration for half-maximal inhibition (IC50) of 38 nM.
`O=C(NCC(c1ccc(C(F)(F)F)nc1)N1CCOCC1)c1c(F)cccc1Cl` (single isomer, unassigned; (-)) [(−)2-chloro-6-fluoro-N-(2-morpholino-2-(6-(trifluoromethyl)p] [(−)2-chloro-6-fluoro-N-(2-morpholino-2-(6-(trifluoromethyl)pyridin-3-yl)ethyl)benzamide]: the concentration for half-maximal inhibition (IC50) is 6.1 nM. Against the preceding compound, the IC50 is about 6.2-fold lower.
In the case of `O=C(NCC(c1ccc(Cl)cc1)N1CCCC1)c1cccc(Cl)c1Cl` (centres unmarked) [2,3-dichloro-N-(2-(4-chlorophenyl)-24 pyrrolidin-1-yl)ethyl)benzamide], the 50% inhibitory concentration (IC50) was 1800 nM.
Regarding `Cc1ncc(C(CNC(=O)c2cccc(Cl)c2Cl)N2CCOCC2)cn1` (single isomer, unassigned; (+)) [(+)2,3-dichloro-N-[2-(2-methylpyrimidin-5-yl)-2-morpholino-e] [(+)2,3-Dichloro-N-[2-(2-methylpyrimidin-5-yl)-2-morpholino-ethyl]benzamide], the IC50 amounted to 69 nM. This IC50 lies about 26-fold lower than the previous one.
For `CCc1ncc(C(CNC(=O)c2c(Cl)cccc2Cl)N2CCC(F)(F)CC2)cn1` (single isomer, unassigned; (+)) [(+)2,6-dichloro-N-[2-(4,4-difluoro-1-piperidyl)-2-(2-ethylpy] [(+2,6-dichloro-N-(2-(4,4-difluoropiperidin-1-yl)-2-(2-ethylpyrimidin-5-yl)ethyl)benzamide], the half-maximal inhibitory concentration (IC50) worked out at 15 nM.
On to `CCc1ncc(C(CNC(=O)c2c(F)cccc2Cl)N2CCC(F)(F)CC2)cn1` (single isomer, unassigned; (+)) [(+)2-chloro-N-[2-(4,4-difluoro-1-piperidyl)-2-(2-ethylpyrimi] [(+)2-chloro-6-fluoro-N-(2-(4,4-difluoropiperidin-1-yl)-2-(2-ethylpyrimidin-5-yl)ethyl)benzamide], for which the half-maximal inhibitory concentration (IC50) is 14 nM.
In turn, `O=C(NCC(c1ccncc1)N1CCOCC1)c1cccc(Cl)c1Cl` (centres unmarked) [2,3-Dichloro-N-(2-morpholin-4-yl-2-pyridin-4-yl-ethyl)-benzamide] returned an IC50 of 750 nM. This IC50 is about 54-fold higher than that of the compound before.
As for `O=C(NCC(c1cnc(C(F)(F)F)nc1)N1CCC(F)(F)CC1)c1c(Cl)cccc1Cl` (single isomer, unassigned; (-)) [(−)2,6-dichloro-N-[2-(4,4-difluoro-1-piperidyl)-2-[2-(triflu] [(−)2,6-dichloro-N-(2-(4,4-difluoropiperidin-1-yl)-2-(2-(trifluoromethyl)pyrimidin-5-yl)ethyl)benzamide], the IC50 worked out at 6.9 nM.
Under `O=C(NCC(c1cnc(C2CC2)nc1)N1CCC(F)(F)CC1)c1cccc(Cl)c1Cl` (single isomer, unassigned; (-)) [(−)2,3-dichloro-N-[2-(2-cyclopropylpyrimidin-5-yl)-2-(4,4-di] [(−)2,3-dichloro-N-(2-(2-cyclopropylpyrimidin-5-yl)-2-(4,4-difluoropiperidin-1-yl)ethyl)benzamide] stands 3.5 nM.
`Cc1ncc(C(CNC(=O)c2cccc(Cl)c2Cl)N2CCCCC2C)cn1` (centres unmarked) [2,3-dichloro-N-(2-(2-methylpiperidin-1-yl)-2-(2-methylpyrimidin-5-yl)ethyl)benzamide] yielded a concentration for half-maximal inhibition (IC50) of 310 nM.
`COc1cccc(C(=O)NCC(c2cnc(C(F)(F)F)nc2)N2CCC(F)(F)CC2)c1Cl` (single isomer, unassigned; (-)) [(−)2-chloro-N-[2-(4,4-difluoro-1-piperidyl)-2-[2-(trifluorom] [(−)2-chloro-N-(2-(4,4-difluoropiperidin-1-yl)-2-(2-(trifluoromethyl)pyrimidin-5-yl)ethyl)-3-methoxybenzamide] returned an IC50 of 4.8 nM.
Compound `COc1ccc(C(CNC(=O)c2ccccc2C)N2CCOCC2)cc1` (centres unmarked) [N-[2-(4-Methoxy-phenyl)-2-morpholin-4-yl-ethyl]-2-methyl-benzamide] registered a half-inhibitory concentration (IC50) of 500 nM.
